Test results reported in US7612087B2, “Heterocyclic compounds as inhibitors of beta-lactamases” (Novexel, priority 2002, dated 2009).

Assays:
β-lactamase TEM1 = biological target: T1, β-lactamase TEM1 (Escherichia coli, UniProt P62593); experiment: Inhibition of isolated β-lactamase Tem-1 (Nitrocefin hydrolysis); format: biochemical, E.coli 250HT21; details: 100 μM Nitrocefin, 50 mM sodium phosphate buffer pH7.0, 37° C.
T1 construct: The β-lactamases are isolated from bacterial strains which are resistant to penicillins and cephalosporins; endogenous in cells; host or cells: E. coli 250HT21 (natural producer; French-press lysate, 100,000 g supernatant)
How it was run: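 TEM-1 from soluble extract of E. coli 250HT21, normalized enzyme, 100 μM Nitrocefin in 50 mM sodium phosphate pH 7.0 at 37 °C. Initial-rate hydrolysis read kinetically at 485 nm, with and without 5 min enzyme–inhibitor preincubation. CI50 from 6 or 8 concentrations in duplicate.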

[1] = system: P. aeruginosa 391HT8 (PSE); experiment: MIC, micro-dilution in liquid medium, β-lactamine with product at 5 mg/l; format: cell-based; details: compound at 5 mg/l, 24 hours at 37° C.; for MIC of Cefotaxime in combination with the compound: Trial 12, 391HT8 P. aeruginosa PSE; for MIC of Piperacillin in combination with the compound: Trial 12, 391HT8 PSE
Description: (§1) The operation is carried out as follows, using the so-called micro-dilution in liquid medium method.
(§2) A series of concentrations of the β-lactamine is prepared in the presence of a constant concentration (5 mg/l) of the product to be studied, each is then seeded with various bacterial strains.
(§3) After incubation for 24 hours in a heating chamber at 37° C., the growth inhibition is evaluated by the absence of any bacterial development, which allows the minimal inhibitory concentrations (MIC) for each strain to be determined, expressed in milligrams/l.

[2] = system: E. cloacae 293HT6 (Class C); experiment: as above; format: cell-based; details: compound at 5 mg/l, 24 hours at 37° C.; for MIC of Piperacillin in combination with the compound: Trial 9, 293HT6 Class; for MIC of Cefotaxime in combination with the compound: Trial 9, 293HT6 E. cloacae Class C
Description: as §1, §2, §3

E. coli 250HT26 (SHV1) = experiment: as above; format: cell-based; details: compound at 5 mg/l, 24 hours at 37° C.; for MIC of Cefotaxime in combination with the compound: Trial 6, 250HT26 E. coli SHV1; for MIC of Piperacillin in combination with the compound: Trial 6, 250HT26 SHV1
Description: as §1, §2, §3

E. coli 250HT22 (Tem2) = experiment: as above; format: cell-based; details: compound at 5 mg/l, 24 hours at 37° C.; for MIC of Cefotaxime in combination with the compound: Trial 3, 250HT22 E. coli Tem2; for MIC of Piperacillin in combination with the compound: Trial 3, 250HT22 Tem2
Description: as §1, §2, §3

E. coli 250SJ1 (Tem7) = experiment: as above; format: cell-based; details: compound at 5 mg/l, 24 hours at 37° C.; for MIC of Cefotaxime in combination with the compound: Trial 5, 250SJ1 E. coli Tem7; for MIC of Piperacillin in combination with the compound: Trial 5, 250SJ1 Tem7
Description: as §1, §2, §3

Serratia 301HT6 = experiment: as above; format: cell-based; details: compound at 5 mg/l; Trial 10, 301HT6 Serratia; 24 hours at 37° C.
Description: as §1, §2, §3

[3] = system: E. coli 250HT23 (Class D); experiment: as above; format: cell-based; details: compound at 5 mg/l, 24 hours at 37° C.; for MIC of Piperacillin in combination with the compound: Trial 8, 250HT23 Class D; for MIC of Cefotaxime in combination with the compound: Trial 8, 250HT23 E. coli Class D
Description: as §1, §2, §3

[4] = system: P. aeruginosa 391HT7 (PSE); experiment: as above; format: cell-based; details: compound at 5 mg/l, 24 hours at 37° C.; for MIC of Cefotaxime in combination with the compound: Trial 11, 391HT7 P. aeruginosa PSE; for MIC of Piperacillin in combination with the compound: Trial 11, 391HT7 PSE
Description: as §1, §2, §3

E. coli 250HT21 (Tem1) = experiment: as above; format: cell-based; details: compound at 5 mg/l, 24 hours at 37° C.; for MIC of Cefotaxime in combination with the compound: Trial 2, 250HT21 E. coli Tem1; for MIC of Piperacillin in combination with the compound: Trial 2, 250HT21 Tem1
Description: as §1, §2, §3

[5] = system: S. aureus 011GO66 (PeniR); experiment: as above; format: cell-based; details: compound at 5 mg/l, 24 hours at 37° C.; for MIC of Cefotaxime in combination with the compound: Trial 1, 011GO66 S. aureus PeniR; for MIC of Piperacillin in combination with the compound: Trial 1, 011GO66 peniR
Description: as §1, §2, §3

E. coli 250BE1 (SHV4) = experiment: as above; format: cell-based; details: compound at 5 mg/l, 24 hours at 37° C.; for MIC of Cefotaxime in combination with the compound: Trial 7, 250BE1 E. coli SHV4; for MIC of Piperacillin in combination with the compound: Trial 7, 250BE1 SHV4
Description: as §1, §2, §3

β-lactamase P99 = biological target: T2, β-lactamase P99 (Enterobacter cloacae, UniProt P05364); experiment: biochemical; details: 100 μM Nitrocefin, 50 mM sodium phosphate buffer pH7.0, 37° C.; read-out: IC50 nM/P99
T2 construct: The β-lactamases are isolated from bacterial strains which are resistant to penicillins and cephalosporins; endogenous in cells; host or cells: Enterobacter cloacae 293HT6 (natural producer; French-press lysate, 100,000 g supernatant)
How it was run: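 P99 β-lactamase, taken from the soluble fraction of an Enterobacter cloacae 293HT6 lysate, was assayed at 37° C. in 50 mM sodium phosphate buffer pH7.0 with 100 μM Nitrocefin as the chromogenic substrate. Hydrolysis was followed kinetically at 485 nm at initial speed, with and without a 5 mn enzyme–inhibitor preincubation. Inhibitors were tested at 6 or 8 concentrations in duplicate, and IC50 was fitted with GraFit.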

E. coli 250CF1 (Tem3) = experiment: microbe, parasite or virus in culture; format: cell-based; details: compound at 5 mg/l, 24 hours at 37° C.; for MIC of Cefotaxime in combination with the compound: Trial 4, 250CF1 E. coli Tem3; for MIC of Piperacillin in combination with the compound: Trial 4, 250CF1 Tem3
Description: as §1, §2, §3

T1 sequence (P62593 24-286 limits assumed): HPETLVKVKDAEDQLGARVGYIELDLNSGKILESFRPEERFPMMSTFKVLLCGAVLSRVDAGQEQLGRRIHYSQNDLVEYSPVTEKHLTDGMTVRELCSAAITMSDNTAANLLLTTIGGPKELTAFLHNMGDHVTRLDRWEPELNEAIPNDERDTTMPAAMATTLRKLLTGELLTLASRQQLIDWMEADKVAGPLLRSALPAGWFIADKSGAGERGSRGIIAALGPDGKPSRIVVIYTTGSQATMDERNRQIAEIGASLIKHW
T2 sequence (P05364 21-381): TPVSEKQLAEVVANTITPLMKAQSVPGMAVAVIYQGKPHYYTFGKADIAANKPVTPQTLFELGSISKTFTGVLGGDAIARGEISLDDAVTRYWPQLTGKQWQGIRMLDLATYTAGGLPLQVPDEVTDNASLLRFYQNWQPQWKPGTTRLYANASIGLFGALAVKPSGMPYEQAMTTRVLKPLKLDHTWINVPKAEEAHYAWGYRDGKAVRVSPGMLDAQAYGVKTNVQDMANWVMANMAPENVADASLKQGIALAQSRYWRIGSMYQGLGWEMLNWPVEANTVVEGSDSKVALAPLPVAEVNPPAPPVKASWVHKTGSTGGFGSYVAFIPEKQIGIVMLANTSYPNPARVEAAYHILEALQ

| SMILES | IC50 (β-lactamase TEM1) [nM] | MIC of Cefotaxime in combination with the compound [1] [µg/mL] | MIC of Piperacillin in combination with the compound [1] [µg/mL] | MIC of Piperacillin in combination with the compound [2] [µg/mL] | MIC of Cefotaxime in combination with the compound [2] [µg/mL] | MIC of Cefotaxime in combination with the compound (E. coli 250HT26 (SHV1)) | MIC of Piperacillin in combination with the compound (E. coli 250HT26 (SHV1)) [µg/mL] | MIC of Cefotaxime in combination with the compound (E. coli 250HT22 (Tem2)) | MIC of Piperacillin in combination with the compound (E. coli 250HT22 (Tem2)) [µg/mL] | MIC of Cefotaxime in combination with the compound (E. coli 250SJ1 (Tem7)) | MIC of Piperacillin in combination with the compound (E. coli 250SJ1 (Tem7)) [µg/mL] | MIC of Cefotaxime in combination with the compound (Serratia 301HT6) [µg/mL] | MIC of Piperacillin in combination with the compound (Serratia 301HT6) [µg/mL] | MIC of Piperacillin in combination with the compound [3] [µg/mL] | MIC of Cefotaxime in combination with the compound [3] | MIC of Cefotaxime in combination with the compound [4] [µg/mL] | MIC of Piperacillin in combination with the compound [4] [µg/mL] | MIC of Cefotaxime in combination with the compound (E. coli 250HT21 (Tem1)) | MIC of Piperacillin in combination with the compound (E. coli 250HT21 (Tem1)) [µg/mL] | MIC of Cefotaxime in combination with the compound [5] [µg/mL] | other results |
| --- | --- | --- | --- | --- | --- | --- | --- | --- | --- | --- | --- | --- | --- | --- | --- | --- | --- | --- | --- | --- | --- |
| O=C(NCCc1cccnc1)[C@H]1CC[C@@H]2CN1C(=O)N2OS(=O)(=O)[O-].[Na+] (relative stereo) [Example 36, sodium salt of trans-7-oxo-N-[2-(3-pyridinyl)ethyl]-6-(sulphooxy)-1,6-diazabicyclo[3.2.1]octane-2-carboxamide] | 23 | 40 | >40 | 20 | 20 | <=0.04 μg/ml | 20 | <=0.04 μg/ml | 40 | <=0.04 μg/ml | 20 | 0.08 | 1.2 | 20 | <=0.04 μg/ml | 40 | >40 | <=0.04 μg/ml | 5 | 1.2 | MIC of Piperacillin in combination with the compound [5]: 1.2 µg/mL; MIC of Cefotaxime in combination with the compound (E. coli 250BE1 (SHV4)): 0.3 µg/mL; MIC of Piperacillin in combination with the compound (E. coli 250BE1 (SHV4)): >40 µg/mL; IC50 (β-lactamase P99): 110 nM; MIC of Cefotaxime in combination with the compound (E. coli 250CF1 (Tem3)): 0.3 µg/mL; MIC of Piperacillin in combination with the compound (E. coli 250CF1 (Tem3)): 40 µg/mL |
| O=C(NCCc1ccncc1)[C@H]1CC[C@@H]2CN1C(=O)N2OS(=O)(=O)[O-].[Na+] (relative stereo) [Example 37, sodium salt of trans-7-oxo-N-[2-(4-pyridinyl)ethyl]-6-(sulphooxy)-1,6-diazabicyclo[3.2.1]octane-2-carboxamide] | 29 | 20 | >40 | 40 | >40 | <=0.04 μg/ml | 20 | <=0.04 μg/ml | >40 | 0.08 µg/mL | >40 | 0.08 | 2.5 | 40 | <=0.04 μg/ml | 20 | >40 | <=0.04 μg/ml | 2.5 | 1.2 | MIC of Piperacillin in combination with the compound [5]: 0.6 µg/mL; MIC of Cefotaxime in combination with the compound (E. coli 250BE1 (SHV4)): 0.6 µg/mL; MIC of Piperacillin in combination with the compound (E. coli 250BE1 (SHV4)): >40 µg/mL; IC50 (β-lactamase P99): 160 nM; MIC of Cefotaxime in combination with the compound (E. coli 250CF1 (Tem3)): 0.3 µg/mL; MIC of Piperacillin in combination with the compound (E. coli 250CF1 (Tem3)): 40 µg/mL |
